Reference: PMC8018184, “Evaluation of the Pharmacophoric Role of the O–O Bond in Synthetic Antileishmanial Compounds: Comparison between 1,2-Dioxanes and Tetrahydropyrans” (Journal of Medicinal Chemistry, 2020)
pIC50: −log10 of the molar value. “And” between values parts separate entries of the source, which are not always exact repeats. Equal values may be shown once.

Columns and labels:
[1] = system: amastigotes of L. donovani; set-up: method as in PMID 30908481; settings: cited from earlier work
[2] = system: promastigotes of L. donovani; set-up: method as in PMID 30878827; settings: in vitro; cited from earlier work
[3] = system: promastigotes of Leishmania donovani strains; set-up: method as in earlier work; settings: Figure 1, cited from earlier work; for pIC50: read-out: IC50 on promastigotes of L. donovani strains
[4] = Cytotoxicity test on Vero cells (alamarBlue); assay type: cell-based, African green monkey; settings: African green monkey
Description: Vero cells (kidney of African green monkey epithelial cell line) were cultured at 37 °C in the MEM liquid medium supplemented with 10% FBS (EuroClone SpA), 1% levoglutamine (EuroClone SpA), and 1% penicillin–streptomycin (EuroClone SpA). THP-1 cells (human leukemia monocytic cell line) were cultured at 37 °C in the RPMI 1640 (EuroClone SpA) liquid medium supplemented with 10% FBS (EuroClone SpA), 1% levoglutamine (EuroClone SpA), 1% penicillin–streptomycin, and mercaptoethanol (Gibco) 50 μM.
The cytotoxicity of the compounds was determined using mammalian kidney epithelial cells (Vero cell line) and human acute monocytic leukemia cell line (THP-1). Cells were seeded (10^5 cells mL^–1) on 96-well plates with the complete MEM medium and incubated with test compounds at 37 °C in a 5% CO2 incubator. After 72 h of incubation, 20 μL of the alamarBlue reagent was added to each well and incubated at 37 °C for 24 h. Reduction of resazurin to resorufin was evaluated after 24 h by absorbance measurement at the Multiskan ascent plate reader (Thermo Fisher Scientific Inc.,) at 550 and 630 nm. […] Each experiment was performed in duplicate.

[5] = system: intramacrophage amastigotes of L. donovani; assay: Amastigote growth inhibition assay in infected THP-1 cells (Giemsa, infectivity index); assay type: cell-based, Leishmania donovani; settings: for pIC50: Leishmania donovani, intracellular amastigotes in THP-1, 72 h, read-out: IC50 against amastigotes of L. donovani
Description: To evaluate the efficacy of the compounds on the intracellular form of L. donovani, human acute monocytic leukemia cell line (THP-1) was infected with L. donovani promastigotes. Cells were harvested and seeded in a 96-well plate (10^5 cells mL^–1) in the complete RPMI 1640 medium, and PMA (0.1 μM, Cayman Chemical Company, Ann Arbor, Michigan, USA) was added for obtaining maturation and cell adherence. Cells were incubated at 37 °C in a 5% CO2 incubator. After 48 h, the medium was replaced with the fresh medium containing stationary-phase promastigotes that were then phagocyted by monocytic cells and transformed into intracellular amastigotes. After 24 h of incubation, newly synthesized compounds were added and the plates were incubated at 37 °C in a 5% CO2 incubator for 72 h. After incubation, wells were washed, fixed, and stained with Giemsa. Staining was detected using a Nikon Eclipse E200 light microscope (Nikon, Tokyo, Japan). The infectivity index (% of infected macrophages × average number of amastigotes per macrophage) was determined by counting at least 100 cells in duplicate cultures.

[6] = system: L. donovani promastigotes (MHOM/NP/02/BPK282/0cl4); assay: Promastigote growth inhibition assay (alamarBlue); assay type: cell-based, Leishmania donovani; settings: for pIC50: Leishmania donovani, 72 h, alamarBlue, HOMEM 20% FBS, compounds as racemates, read-out: IC50 (concentration causing 50% growth inhibition) against promastigotes of L. donovani
Description: The bioactivity of the new tetrahydropyrans 3 was initially evaluated against the extracellular promastigote forms of L. donovani (MHOM/NP/02/BPK282/0cl4) as the reference strain, indicative of the leishmaniasis in the Old World. The results were expressed as IC50, i.e., the concentration of the product required to inhibit the parasite growth by 50%. When a compound could inhibit the promastigote growth, its cytotoxicity was also evaluated on Vero cells (Table 1) and on THP-1 cells (see the Supporting Information, Table S3) and the corresponding selectivity indexes (SIs) were calculated. The performance of each tetrahydropyran 3 was compared with that of the corresponding endoperoxide 2 (Table 1).
Promastigotes of a L. donovani reference strain (MHOM/NP/02/BPK282/0cl4) were maintained at 26 °C in a liquid custom-made medium, HOMEM Cat. no: 1140-082 (Gibco Thermo Fisher Scientific Inc., Waltham, USA), complete composition: S-MEM (Eagle) 1 × 1 liter pack, glucose (1–2 g), sodium bicarbonate (0.3 g), sodium pyruvate (0.11 g), p-aminobenzoic acid (1 mg), biotin (0.1 mg), HEPES (4.77–5.96 g), MEM amino acids (10 mL), MEM nonessential amino acids (10 mL), pH 7.5–7.6, supplemented with 20% fetal bovine serum (FBS, EuroClone SpA, Milan, Italy)[123] and 1% penicillin–streptomycin (EuroClone SpA).
To evaluate the efficacy of the compounds on the extracellular forms of L. donovani, promastigotes in their late log/stationary phase were seeded with the complete HOMEM medium at 10^6 cells mL^–1 in 96-well plates and incubated with tested compounds at a range concentration of 600–1.6 μM in a 26 °C incubator for 72 h. The antileishmanial drug amphotericin B was used as the positive control, and untreated promastigotes were the negative control. Each experiment was performed in duplicate. Stock solution of the compounds was 8 mM in DMSO. […] The alamarBlue assay includes a colorimetric growth indicator based on detection of metabolic activity. Specifically, the system incorporates an oxidation–reduction (REDOX) indicator that changes color in response to chemical reduction of the growth medium resulting from cell growth. The method monitors the reducing environment of proliferating cells; the cell-permeable resazurin is added (nonfluorescent form, blue color) and, upon entering cells, is reduced to resorufin (fluorescent form, red color) as a result of cellular metabolic activity. Evaluation was performed by adding 20 μL of alamarBlue and incubating at 26 °C for 24 h. The reducing environment was evaluated after 24 h by absorbance measurement at the Multiskan ascent plate reader (Thermo Fisher Scientific Inc.) at 550 and 630 nm.

Leishmania promastigotes = system: Leishmania promastigotes; set-up: method as in PMID 27867026, PMID 17339374; settings: Figure 3; cited from earlier work
[7] = system: intracellular amastigotes of L. infantum; set-up: method as in PMID 26014947; settings: in vitro; cited from earlier work
[8] = system: promastigotes of L. infantum; set-up: method as in PMID 26014947; settings: in vitro; cited from earlier work

For “6-(1,2,6,7-tetraoxaspiro[7.11]nonadec-4-yl) hexan-1-ol [N-251]”, the pIC50 [1] is listed as 5.17.

For `CCCCC1(CCCC)CC(CNCCCn2ccnc2)C(C)(OC)OO1` (stereo not drawn) [3,4-cis 2a], the pIC50 [2] is listed as 5.26.

In the case of `CCCCC1(CCCC)CC(CNCCCn2ccnc2)C(C)(OC)OO1` (stereo not drawn) [3,4-trans 2a], the pIC50 [2] is given as 5.40.

In the case of `C[C@@H]1[C@H](O)[C@@H](C)/C=C/C=C/C=C/C=C/C=C/C=C/C=C/[C@H](O[C@@H]2O[C@H](C)[C@@H](O)[C@H](N)[C@@H]2O)C[C@@H]2O[C@](O)(C[C@@H](O)C[C@@H](O)[C@H](O)CC[C@@H](O)C[C@@H](O)CC(=O)O[C@H]1C)C[C@H](O)[C@H]2C(=O)O` [Amphotericin B, reference compound], the pIC50 [3] is listed as 5.55 to 7.52, the CC50 at 72 h [4] is listed as 200 µM and the pIC50 [5] is listed as 7.15. For the same compound, the “Selectivity index (SI) = CC50/IC50” value ([5]; Vero CC50 / IC50 on amastigotes) was 2857.1, the pIC50 [6] was 6.52 and the “Selectivity index (SI) = CC50/IC50” value ([6]; Vero CC50 / IC50 on promastigotes) was 666.7.

In the case of `C[C@@H]1CC[C@H]2[C@@H](C)C(=O)O[C@@H]3O[C@@]4(C)CC[C@@H]1[C@]32OO4` [Artemisinin, reference compound], the pIC50 [5] is given as < 4.40, the pIC50 [6] is given as < 4.40 and the pIC50 (Leishmania promastigotes) is given as 4.51.

For `COc1ccc(N[C@@]2(C(F)(F)F)O[C@@H]3C[C@@]4(C)C[C@H]5[C@H](C)CC[C@@H]([C@H]2C)[C@@]35OO4)cc1` [BB201], the pIC50 (Leishmania promastigotes) is listed as 5.82 to 6.42.

For `C=CCO[C@@]1(C(F)(F)F)O[C@@H]2C[C@@]3(C)C[C@H]4[C@H](C)CC[C@@H]([C@H]1C)[C@@]24OO3` [BB241], the pIC50 (Leishmania promastigotes) is listed as 5.20 to 5.80.

In the case of `O=C1CCC2(CC1)OOC1(O2)C2CC3CC(C2)CC1C3` (stereo not shown) [LC50], the pIC50 [7] is listed as 3.97 to 4.10.

For `NCC1CC[C@]2(CC1)OO[C@]1(O2)C2CC3CC(C2)CC1C3` (stereo partly shown) [LC95], the pIC50 [7] is given as 3.97 to 4.10 and the pIC50 [8] is given as 5.46 and 5.03 to 5.46.

In the case of `NC[C@@H]1O[C@H](O[C@H]2[C@@H](O)[C@H](O[C@@H]3[C@@H](O)[C@H](N)C[C@H](N)[C@H]3O[C@H]3O[C@H](CO)[C@@H](O)[C@H](O)[C@H]3N)O[C@@H]2CO)[C@H](N)[C@@H](O)[C@@H]1O` [Paromomycin], the pIC50 [3] is listed as 4.55 to 4.71.

For `O.O.O.O.O.O.O.O.O.O=C([O-])[C@@H]1[O][Sb](=[O])([O][Sb]2(=[O])[O][C@H]([C@H](O)CO)[C@H](O)[C@H](C(=O)[O-])[O]2)[O][C@H]([C@H](O)CO)[C@@H]1O.[Na+].[Na+].[Na+]` (stereo partly shown) [Sodium stibogluconate], the “IC50 on promastigotes of L. donovani strains” value [3] is listed as 8.8 to 22.0 µg/mL.
